Measured values from patent US20050009840A1 (SUGEN, INC., priority 2003, published 2005).
Where a name gives a salt, the structure may show the parent alone.

Each compound was assayed against T1, Met kinase domain (GST fusion protein) (Homo sapiens, UniProt P08581) (assay: Met transphosphorylation assay (ELISA, poly(glu-tyr) substrate)). Settings: read-out: Met IC50.
T1 construct: Purified GST fusion protein containing the Met kinase domain
Format: biochemical
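Further: Cell-free ELISA with plate-bound poly(Glu:Tyr 4:1) phosphorylated by GST-fused Met kinase domain plus ATP and Mn2+, phosphotyrosine detected by anti-phosphotyrosine antibody with HRP and ABTS read-out.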

T1 sequence (P08581 1078-1345 limits assumed): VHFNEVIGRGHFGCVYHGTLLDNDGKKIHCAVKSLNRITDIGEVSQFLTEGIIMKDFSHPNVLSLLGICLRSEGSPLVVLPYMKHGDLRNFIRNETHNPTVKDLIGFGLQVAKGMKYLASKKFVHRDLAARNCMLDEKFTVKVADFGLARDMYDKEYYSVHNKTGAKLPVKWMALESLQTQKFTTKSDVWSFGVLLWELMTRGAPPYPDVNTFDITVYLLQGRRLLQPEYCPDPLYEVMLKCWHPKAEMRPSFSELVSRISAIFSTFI

Row | SMILES | IC50 [nM]
1 | CC(Oc1nc(-c2ccc(NC(=O)N3CCN(C)CC3)cc2)cnc1N)c1c(Cl)ccc(F)c1Cl (stereo not shown) [II-189, 4-Methyl-piperazine-1-carboxylic acid (4-{5-amino-6-[1-(2,6-dichloro-3-fluoro-phenyl)-ethoxy]-pyrazin-2-yl}-phenyl)-amide] | 74
2 | CC(Oc1nc(-c2ccc(NC(=O)NCCO)cc2)cnc1N)c1c(Cl)ccc(F)c1Cl (stereo not shown) [II-190, 1-(4-{5-Amino-6-[1-(2,6-dichloro-3-fluoro-phenyl)-ethoxy]-pyrazin-2-yl}-phenyl)-3-(2-hydroxy-ethyl)-urea] | 280
3 | CC(Oc1nc(-c2ccc(NC(=O)N3CC[C@H](N)C3)cc2)cnc1N)c1c(Cl)ccc(F)c1Cl (stereo partly drawn) [II-191, (S)-3-Amino-pyrrolidine-1-carboxylic acid (4-{5-amino-6-[1-(2,6-dichloro-3-fluoro-phenyl)-ethoxy]-pyrazin-2-yl}-phenyl)-amide] | 3000
4 | CC(Oc1nc(-c2ccc(NC(=O)NC3CCN(C)CC3)cc2)cnc1N)c1c(Cl)ccc(F)c1Cl (stereo not shown) [II-192, 1-(4-{5-Amino-6-[1-(2,6-dichloro-3-fluoro-phenyl)-ethoxy]-pyrazin-2-yl}-phenyl)-3-(1-methyl-piperidin-4-yl)-urea] | 52
5 | CN1CCN(C(=O)c2ccc(-c3cnc(N)c(OCc4c(F)ccc(F)c4Cl)n3)s2)CC1 [II-194, {5-[5-Amino-6-(2-chloro-3,6-difluoro-benzyloxy)-pyrazin-2-yl]-thiophen-2-yl)(4-methyl-piperazin-1-yl)-methanone] | 620
6 | Nc1ncc(-c2ccc(C(=O)N3CCC(N4CCCC4)CC3)s2)nc1OCc1c(F)ccc(F)c1Cl [II-195, {5-[5-Amino-6-(2-chloro-3,6-difluoro-benzyloxy)-pyrazin-2-yl]-thiophen-2-yl}-(4-pyrrolidin-1-yl-piperidin-1-yl)-methanone] | 510
7 | C[C@@H]1CN(C(=O)c2ccc(-c3cnc(N)c(OCc4c(F)ccc(F)c4Cl)n3)s2)C[C@H](C)N1 [II-196, {5-[5-Amino-6-(2-chloro-3,6-difluoro-benzyloxy)-pyrazin-2-yl]-thiophen-2-yl}-((3R,5S)-3,5-dimethyl-piperazin-1-yl)-methanone] | 550
8 | Nc1ncc(-c2ccc(C(=O)N3CCC[C@@H]3CN3CCCC3)s2)nc1OCc1c(F)ccc(F)c1Cl [II-197, {5-[5-Amino-6-(2-chloro-3,6-difluoro-benzyloxy)-pyrazin-2-yl]-thiophen-2-yl}-((R)-2-pyrrolidin-1-ylmethyl-pyrrolidin-1-yl)-methanone] | 800
9 | Nc1ncc(-c2ccc(C(=O)NCCN3CCOCC3)s2)nc1OCc1c(F)ccc(F)c1Cl [II-198, 5-[5-Amino-6-(2-chloro-3,6-difluoro-benzyloxy)-pyrazin-2-yl]-thiophene-2-carboxylic acid (2-morpholin-4-yl-ethyl)-amide] | 700
10 | CC(Oc1nc(-c2ccc(C(=O)N3CCN(C)CC3)cn2)cnc1N)c1c(Cl)ccc(F)c1Cl (stereo not shown) [II-199, 3-[1-(2,6-dichloro-3-fluoro-phenyl)ethoxy]-5-{5-[(4-methylpiperazin-1-yl)carbonyl]-pyridin-2-yl}pyrazin-2-amine trifluoroacetate] | 150
11 | CC(Oc1nc(-c2ccncc2)cnc1N)c1c(Cl)ccc(F)c1Cl (stereo not shown) [II-200, 3-[1-(2,6-Dichloro-3-fluoro-phenyl)-ethoxy]-5-pyridin-4-yl-pyrazin-2-ylamine] | 45
12 | CC(Oc1nc(-c2ccc[nH]2)cnc1N)c1c(Cl)ccc(F)c1Cl (stereo not shown) [II-201, 3-[1-(2,6-Dichloro-3-fluoro-phenyl)-ethoxy]-5-(1H-pyrrol-2-yl)-pyrazin-2-ylamine] | 220
13 | CC(Oc1nc(-c2ccc(C(=O)N3CCN(C)CC3)cn2)cnc1N)c1c(Cl)ccc(F)c1Cl (stereo not shown) [II-202, (6-{5-Amino-6-[1-(2,6-dichloro-3-fluoro-phenyl)-ethoxy]-pyrazin-2-yl}-pyridin-3-yl)-(4-methyl-piperazin-1-yl)-methanone] | 150
14 | CC(Oc1nc(-c2cc(C(=O)N3CCN(C)CC3)ccn2)cnc1N)c1c(Cl)ccc(F)c1Cl (stereo not shown) [II-203, (2-{5-Amino-6-[1-(2,6-dichloro-3-fluoro-phenyl)-ethoxy]-pyrazin-2-yl}-pyridin-4-yl)-(4-methyl-piperazin-1-yl)-methanone] | 180
15 | CC(Oc1nc(-c2cccc(C(=O)N3CCN(C)CC3)n2)cnc1N)c1c(Cl)ccc(F)c1Cl (stereo not shown) [II-204, (6-{5-Amino-6-[1-(2,6-dichloro-3-fluoro-phenyl)-ethoxy]-pyrazin-2-yl}-pyridin-2-yl)-(4-methyl-piperazin-1-yl)-methanone] | 220
16 | CC(Oc1nc(-c2cncc(C(=O)N3CCN(C)CC3)c2)cnc1N)c1c(Cl)ccc(F)c1Cl (stereo not shown) [II-205, (5-{5-Amino-6-[1-(2,6-dichloro-3-fluoro-phenyl)-ethoxy]-pyrazin-2-yl}-pyridin-3-yl)-(4-methyl-piperazin-1-yl)-methanone] | 100
17 | CC(Oc1nc(-c2ccnc(C(=O)N3CCN(C)CC3)c2)cnc1N)c1c(Cl)ccc(F)c1Cl (stereo not shown) [II-206, (4-{5-Amino-6-[1-(2,6-dichloro-3-fluoro-phenyl)-ethoxy]-pyrazin-2-yl}-pyridin-2-yl)-(4-methyl-piperazin-1-yl)-methanone] | 100
18 | CC(Oc1nc(-c2cncc(C(=O)NCCN3CCOCC3)c2)cnc1N)c1c(Cl)ccc(F)c1Cl (stereo not shown) [II-208, 5-{5-Amino-6-[1-(2,6-dichloro-3-fluoro-phenyl)-ethoxy]-pyrazin-2-yl}-N-(2-morpholin-4-yl-ethyl)-nicotinamide] | 38
19 | CC(Oc1nc(-c2cncc(C(=O)NCCCN3CCOCC3)c2)cnc1N)c1c(Cl)ccc(F)c1Cl (stereo not shown) [II-210, 5-{5-Amino-6-[1-(2,6-dichloro-3-fluoro-phenyl)-ethoxy]-pyrazin-2-yl}-N-(3-morpholin-4-yl-propyl)-nicotinamide] | 22
